Laboratory results: ChEMBL document CHEMBL1130148, “Synthesis and study of thiocarbonate derivatives of choline as potential inhibitors of acetylcholinesterase” (J Med Chem, 1997)
pIC50, pKi: −log10 of the molar value.

Tests used:
Acetylcholinesterase [1] = target: T1, Acetylcholinesterase (Bos taurus, UniProt P23795); assay: Inhibition of Acetylcholinesterase activity of calf forebrain
T1 sequence (P23795 whole entry): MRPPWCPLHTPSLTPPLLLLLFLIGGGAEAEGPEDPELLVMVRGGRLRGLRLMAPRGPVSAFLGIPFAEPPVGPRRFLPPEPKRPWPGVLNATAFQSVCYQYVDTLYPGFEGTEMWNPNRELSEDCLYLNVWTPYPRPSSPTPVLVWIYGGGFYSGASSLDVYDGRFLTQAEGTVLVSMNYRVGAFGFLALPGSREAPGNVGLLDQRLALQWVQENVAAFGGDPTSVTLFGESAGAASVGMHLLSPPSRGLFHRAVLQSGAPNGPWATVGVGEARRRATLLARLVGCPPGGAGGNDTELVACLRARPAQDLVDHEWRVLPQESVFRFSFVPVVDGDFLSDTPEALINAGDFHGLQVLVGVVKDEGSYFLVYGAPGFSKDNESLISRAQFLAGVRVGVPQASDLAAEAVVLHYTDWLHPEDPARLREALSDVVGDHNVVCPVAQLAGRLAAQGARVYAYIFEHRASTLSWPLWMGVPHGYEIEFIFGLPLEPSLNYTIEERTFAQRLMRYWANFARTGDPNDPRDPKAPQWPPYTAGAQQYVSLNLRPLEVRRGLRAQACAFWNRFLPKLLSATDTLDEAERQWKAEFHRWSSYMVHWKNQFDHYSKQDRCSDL

Acetylcholinesterase [2] = target: T2, Acetylcholinesterase (Homo sapiens, UniProt P22303); assay: Inhibition of Acetylcholinesterase from human red blood cells
T2 sequence (P22303 whole entry): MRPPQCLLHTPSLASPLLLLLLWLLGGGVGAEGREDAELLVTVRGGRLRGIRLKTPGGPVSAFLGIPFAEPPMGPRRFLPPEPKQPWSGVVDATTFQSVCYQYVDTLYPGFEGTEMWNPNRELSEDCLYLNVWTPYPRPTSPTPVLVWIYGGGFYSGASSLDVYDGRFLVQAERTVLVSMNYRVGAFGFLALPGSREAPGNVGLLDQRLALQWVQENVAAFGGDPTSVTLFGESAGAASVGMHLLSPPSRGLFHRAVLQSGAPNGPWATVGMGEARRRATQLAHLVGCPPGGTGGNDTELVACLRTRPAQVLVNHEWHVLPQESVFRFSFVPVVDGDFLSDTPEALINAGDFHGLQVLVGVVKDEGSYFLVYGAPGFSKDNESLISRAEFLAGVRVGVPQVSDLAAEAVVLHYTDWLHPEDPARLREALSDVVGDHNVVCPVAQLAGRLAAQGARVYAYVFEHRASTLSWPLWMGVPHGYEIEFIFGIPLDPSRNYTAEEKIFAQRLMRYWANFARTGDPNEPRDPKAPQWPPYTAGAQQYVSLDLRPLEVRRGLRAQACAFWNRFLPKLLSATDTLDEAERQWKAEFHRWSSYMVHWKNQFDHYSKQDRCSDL

Acetylcholinesterase [3] = target: T1, Acetylcholinesterase; assay: Binding affinity against Acetylcholinesterase of purified calf forebrain (CFB)
Acetylcholinesterase [4] = target: T2, Acetylcholinesterase; assay: Binding affinity against Acetylcholinesterase of human RBC
Acetylcholinesterase [5] = target: T1, Acetylcholinesterase; assay: In vitro inhibition of Acetylcholinesterase activity from calf fore brain was evaluated using 1 mM of ATC as substrate; NI=Not inhibitory
Acetylcholinesterase [6] = target: T2, Acetylcholinesterase; assay: In vitro inhibition of Acetylcholinesterase activity from human red blood cells was evaluated using 1 mM of ATC as substrate; NI=Not inhibitory

| SMILES | pIC50 (Acetylcholinesterase [1]) | pIC50 (Acetylcholinesterase [2]) | pKi (Acetylcholinesterase [3]) | pKi (Acetylcholinesterase [4]) | IC50 (Acetylcholinesterase [5]) | IC50 (Acetylcholinesterase [6]) |
| --- | --- | --- | --- | --- | --- | --- |
| CCCCSC(=O)OCC[N+](C)(C)C | 4.00 | 3.30 |  |  |  |  |
| CCCCCSC(=O)OCC[N+](C)(C)C | 6.00 | 6.10 | 6.00 |  |  |  |
| C[N+](C)(C)CCOC(=O)Sc1ccccc1.[Cl-] | 4.00 | 3.00 |  |  |  |  |
| CC(C)CCSC(=O)OCC[N+](C)(C)C | 5.00 | 4.30 |  |  |  |  |
| CCCCCCCSC(=O)OCC[N+](C)(C)C | 5.00 | 4.30 | 5.00 | 4.70 |  |  |
| CCC(C)CSC(=O)OCC[N+](C)(C)C.[Cl-] (stereo not given) | 3.10 | 3.00 |  |  |  |  |
| CCc1ccc(SC(=O)OCC[N+](C)(C)C)cc1 | 4.00 | 3.30 |  |  |  |  |
| CC(C)SC(=O)OCC[N+](C)(C)C.[Cl-] |  |  |  |  | No inhibition | No inhibition |
| CC(C)(C)SC(=O)OCC[N+](C)(C)C.[Cl-] |  |  |  |  | No inhibition | No inhibition |
| CCSC(=O)OCC[N+](C)(C)C | < 2.00 | < 2.00 |  |  |  |  |
| CCCCCCSC(=O)OCC[N+](C)(C)C | 4.70 | 4.10 |  |  |  |  |
| CCN(CC)CCNC(=O)c1ccc(N)cc1 [PROCAINAMIDE] | 6.30 | 6.00 | 6.00 | 6.00 |  |  |
| CCCSC(=O)OCC[N+](C)(C)C | < 3.00 | < 2.30 |  |  |  |  |
| CCc1ccccc1SC(=O)OCC[N+](C)(C)C.[Cl-] | 5.00 | 4.30 |  |  |  |  |
| CCC(C)(C)SC(=O)OCC[N+](C)(C)C.[Cl-] | 5.00 | 4.40 |  |  |  |  |
